Laboratory results as given in US9351940B2, “Nanoparticles comprising esters of poly (methyl vinyl ether-co-maleic anhydride) and uses thereof” (priority 2011, dated 2016).
≈ marks a conversion by molar mass, not a printed value.

Test: Water solubility of KTZ in aqueous suspension without polymer
Format: physicochemical
Settings: kinetic from dmso stock, aqueous suspension after precipitation from alcoholic solution, no polymer
Method: The selection of the appropriate Ketoconazole:polymer ratio (w/w) which is needed to dissolve drug crystals and to obtain homogeneous nanoparticles free from drug crystals was firstly optimized. For that purpose, 200 mg of KTZ were resuspended in different volumes of both absolute ethanol (10, 15 and 20 mL) as control solution or in the same volumes of GANTREZ® ES 425 ethanolic solution (50 mg/mL). GANTREZ® ES nanoparticles were produced by the addition of the corresponding volume of bidistilled water (2:1 (v/v) water/polymer solution) to GANTREZ® ES alcoholic solutions containing KTZ. […] Finally, the aqueous suspensions of KTZ-loaded GANTREZ® ES nanoparticles and KTZ aqueous suspension without the polymer were collected for further characterization and drug content quantification.
The amount of encapsulated drug in the nanoparticles was assayed by UV spectrophotometry at 257 nm (Shimadzu 1203 UV-VIS). In order to quantify the amount of KTZ in the nanoparticles suspension or free KTZ suspension without the polymer GANTREZ® ES), all samples of fleshly prepared formulations were evaporated under reduced pressure to eliminate ethanol, and then 1 mL of triplicate samples were centrifuged at 20,000 rpm for 25 min. […]

solubility: ~11 µg/mL (≈ 20.7 µM)
SMILES: CC(=O)N1CCN(c2ccc(OCC3COC(Cn4ccnc4)(c4ccc(Cl)cc4Cl)O3)cc2)CC1 (stereo not shown) [KTZ, Ketoconazole]
